Experimental data from US20070128217A1 (priority 2003, published 2007).

What was measured:
[1] = test system: antibodies in sera from SARS patients (sera 1a, 1b, 2, 6, 37, 62, London, SARS-yellow, SARS-green); type: binding, human; parameters: Binding of serum 6 to linear peptides of protein X1 of SARS-CoV Urbani / Binding of serum 37 to linear peptides of protein X1 of SARS-CoV Urbani / Binding of serum 6 to looped/cyclic peptide (PEPSCAN-ELISA) / Binding of serum 37 to looped/cyclic peptide (PEPSCAN-ELISA) / Binding of serum 37 to looped/cyclic peptides of protein X1 of SARS-CoV Urbani / Binding of serum 6 to linear peptides of protein X2 / Binding of serum 37 to linear peptides of protein X2 / Binding of serum 37 to looped/cyclic peptides of protein X2 of SARS-CoV Urbani / Binding of serum 6 to linear peptides of protein M of SARS-CoV Urbani / Binding of serum 37 to linear peptides of protein M of SARS-CoV Urbani / Binding of serum 6 to looped/cyclic peptides of protein M of SARS-CoV Urbani / Binding of serum 37 to looped/cyclic peptides of protein M of SARS-CoV Urbani / Binding of serum 6 to linear peptides of protein X3 of SARS-CoV Urbani / Binding of serum 37 to linear peptides of protein X3 of SARS-CoV Urbani / Binding of serum 37 to looped/cyclic peptides of protein X3 of SARS-CoV Urbani / Binding of serum 6 to linear peptides of protein X4 of SARS-CoV Urbani / Binding of serum 37 to linear peptides of protein X4 of SARS-CoV Urbani / Binding of serum 37 to looped/cyclic peptides of protein X4 of SARS-CoV Urbani / Binding of serum 6 to linear peptides of protein X5 of SARS-CoV Urbani / Binding of serum 37 to linear peptides of protein X5 of SARS-CoV Urbani / Binding of serum 37 to looped/cyclic peptides of protein X5 of SARS-CoV Urbani / Binding of serum 6 to linear peptides of protein N of SARS-CoV Urbani / Binding of serum 37 to linear peptides of protein N of SARS-CoV Urbani / Binding of serum 6 to linear peptide (PEPSCAN-ELISA) / Binding of serum 1a to looped/cyclic peptides of protein N of SARS-CoV Urbani / Binding of serum 1b to looped/cyclic peptides of protein N of SARS-CoV Urbani / Binding of serum 2 to looped/cyclic peptides of protein N of SARS-CoV Urbani / Binding of serum 6 to looped/cyclic peptides of protein N of SARS-CoV Urbani / Binding of serum 37 to looped/cyclic peptides of protein N of SARS-CoV Urbani / Binding of serum 62 to looped/cyclic peptides of protein N of SARS-CoV Urbani / Binding of serum London to looped/cyclic peptides of protein N of SARS-CoV Urbani / Binding of serum SARS-green to looped/cyclic peptides of protein N of SARS-CoV Urbani: unit not given here
[2] = test system: control sera (pooled serum of ten healthy LUMC hospital workers; commercial negative donor pooled serum from the Dutch bloodbank); type: binding, human; parameters: Binding of Control serum LUMC to linear peptides / Binding of Control serum Blood-bank to linear peptides / Binding of Control serum LUMC to looped peptides / Binding of Control Serum Blood-Bank to Looped peptides / Binding of Control serum LUMC to linear peptides of the protein M of SARS-CoV Urbani / Binding of Control serum Blood-bank to linear peptides of the protein M of SARS-CoV Urbani / Binding of Control serum LUMC to looped peptides of the protein M of SARS-CoV Urbani / Binding of Control Serum Blood-Bank to Looped peptides of the protein M of SARS-CoV Urbani: unit not given here
[3] = test system: rabbit serum obtained by immunizing a rabbit with the SARS-CoV strain Frankfurt 1; type: binding; parameters: Binding of a rabbit serum to linear peptides / Binding of a rabbit serum to looped peptides / Rabbit serum linear peptides / Rabbit serum looped peptides / Binding of a rabbit serum to linear peptides of protein N of SARS-CoV Urbani (Rabbit serum linear peptides) / Binding of a rabbit serum to looped/cyclic peptides of protein N of SARS-CoV Urbani (Rabbit serum looped peptides): unit not given here
[4] = test system: recombinant human anti-SARS-CoV antibody 03-018; type: binding; parameters: Binding of antibody 03-018 to linear peptides of the N protein of SARS-CoV Urbani / Binding of antibody 03-018 to looped/cyclic peptides of the N protein of SARS-CoV Urbani: unit not given here

Row | Sequence | Binding of serum 1a to linear peptides of protein N of SARS-CoV Urbani [1] | Binding of serum 1a to looped/cyclic peptides of protein N of SARS-CoV Urbani [1] | Binding of serum 1b to linear peptides of protein N of SARS-CoV Urbani [1] | Binding of serum 1b to looped/cyclic peptides of protein N of SARS-CoV Urbani [1] | Binding of serum 2 to linear peptides of protein N of SARS-CoV Urbani [1] | Binding of serum 2 to looped/cyclic peptides of protein N of SARS-CoV Urbani [1] | Binding of serum 6 to linear peptides of protein N of SARS-CoV Urbani [1] | Binding of serum 6 to looped/cyclic peptides of protein N of SARS-CoV Urbani [1] | Binding of serum 37 to linear peptides of protein N of SARS-CoV Urbani [1] | Binding of serum 37 to looped/cyclic peptides of protein N of SARS-CoV Urbani [1] | Binding of serum 62 to linear peptides of protein N of SARS-CoV Urbani [1] | Binding of serum 62 to looped/cyclic peptides of protein N of SARS-CoV Urbani [1] | Binding of serum London to linear peptides of protein N of SARS-CoV Urbani [1] | Binding of serum London to looped/cyclic peptides of protein N of SARS-CoV Urbani [1] | Binding of serum SARS-green to looped/cyclic peptides of protein N of SARS-CoV Urbani [1] | Binding of serum SARS-yellow to looped/cyclic peptides of protein N of SARS-CoV Urbani [1] | Binding of a rabbit serum to linear peptides of protein N of SARS-CoV Urbani (Rabbit serum linear peptides) [3] | Binding of a rabbit serum to looped/cyclic peptides of protein N of SARS-CoV Urbani (Rabbit serum looped peptides) [3] | Binding of antibody 03-018 to linear peptides of the N protein of SARS-CoV Urbani [4] | Binding of antibody 03-018 to looped/cyclic peptides of the N protein of SARS-CoV Urbani [4] | further results
1 | SWFTALTQHGKEELR | 0.2 | 0.2 | 0.1 | 0.1 | 0.2 | 0.2 | 0.1 | 0.1 | 0.6 | 0.3 | 0.6 | 0.2 | 0.5 | 0.2 | 0.1 | 0.0 | 0.1 | 0.0 | 0.1 | 0.2 | Binding of serum SARS-green to linear peptides of protein N of SARS-CoV Urbani [1]: 0.2; Binding of serum SARS-yellow to linear peptides of protein N of SARS-CoV Urbani [1]: 0.5; Binding of Control Serum Blood-Bank to Looped peptides [2]: 0.4; Binding of Control serum Blood-bank to linear peptides [2]: 0.6; Binding of Control serum LUMC to linear peptides [2]: 0.7; Binding of Control serum LUMC to looped peptides [2]: 0.3
2 | TALALLLLDRLNQLE |  | 0.4 |  | 0.3 |  | 0.5 |  | 0.3 |  | 0.8 |  | 0.7 |  | 0.5 | 0.7 | 0.5 | 0.2 | 0.5 | 0.1 | 0.2 | Binding of serum 1a to linear peptide (PEPSCAN-ELISA) [1]: 0.3; Binding of serum 1b to linear peptide (PEPSCAN-ELISA) [1]: 0.2; Binding of serum 2 to linear peptide (PEPSCAN-ELISA) [1]: 0.2; Binding of serum 6 to linear peptide (PEPSCAN-ELISA) [1]: 0.2; Binding of serum 37 to linear peptide (PEPSCAN-ELISA) [1]: 0.7; Binding of serum 62 to linear peptide (PEPSCAN-ELISA) [1]: 0.7; Binding of serum London to linear peptide (PEPSCAN-ELISA) [1]: 0.5; Binding of serum SARS-green to linear peptide (PEPSCAN-ELISA) [1]: 0.8; Binding of serum SARS-yellow to linear peptide (PEPSCAN-ELISA) [1]: 0.6; Binding of Control Serum Blood-Bank to Looped peptides [2]: 0.8; Binding of Control serum Blood-bank to linear peptides [2]: 0.7; Binding of Control serum LUMC to linear peptides [2]: 0.7; Binding of Control serum LUMC to looped peptides [2]: 0.8
3 | TDNNQNGGRNGARPK | 0.3 | 0.2 | 0.2 | 0.1 | 0.4 | 0.2 | 0.2 | 0.2 | 0.8 | 0.4 | 1.0 | 0.2 | 0.6 | 0.3 | 0.1 | 0.3 | 0.2 | 0.4 | 0.2 | 0.2 | Binding of serum SARS-green to linear peptides of protein N of SARS-CoV Urbani [1]: 0.8; Binding of serum SARS-yellow to linear peptides of protein N of SARS-CoV Urbani [1]: 0.7; Binding of Control Serum Blood-Bank to Looped peptides [2]: 0.5; Binding of Control serum Blood-bank to linear peptides [2]: 0.9; Binding of Control serum LUMC to linear peptides [2]: 0.8; Binding of Control serum LUMC to looped peptides [2]: 0.5
4 | TDYKHWPQIAQFAPS | 0.3 | 0.6 | 0.2 | 0.5 | 0.2 | 0.8 | 0.2 | 0.5 | 0.8 | 0.9 | 0.9 | 1.3 | 0.7 | 0.7 | 0.6 | 0.9 | 0.2 | 0.5 | 0.1 | 0.2 | Binding of serum SARS-green to linear peptides of protein N of SARS-CoV Urbani [1]: 0.4; Binding of serum SARS-yellow to linear peptides of protein N of SARS-CoV Urbani [1]: 0.7; Control Serum Blood-Bank Looped peptides [2]: 1.2; Control serum Blood-bank linear peptides [2]: 0.8; Control serum LUMC linear peptides [2]: 0.8; Control serum LUMC looped peptides [2]: 1.1
